This is an account of results in patent US20260015350A1, “AZAQUINAZOLINE PAN-KRAS INHIBITORS” (Mirati Therapeutics, Inc., priority 2022, published 2026).

In assay [1] the test system is KRas-mediated phosphorylation of ERK in AsPC-1 cells. The assay is described as follows: Inhibition of KRas-mediated phosphorylation of ERK (Cisbio HTRF pERK), AsPC-1 cells. In kind it is cell-based. To be noted: Homo sapiens; for inhibition at 0.1 µM: ASPC1, 3 h, single point, 100 nM compound, 3 hrs, AsPC-1 cells; for IC50: ASPC1, AsPC-1 cells, HTRF pERK. In outline:
(§1)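 Phosphorylated ERK was quantified by HTRF using d2-conjugate and Cryptate antibodies added to lysates for 2 hrs at room temperature.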
(In general: Time-resolved FRET reads energy transfer from a long-lived donor to a nearby acceptor.)

Assay [2] concerns KRas-mediated phosphorylation of ERK in PSN1 cells. Nature of the assay: Inhibition of KRas-mediated phosphorylation of ERK (Cisbio HTRF pERK), PSN1 cells. To be noted: Homo sapiens. In kind it is cell-based. A digest of the protocol: (§2)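 Day 1 seeding: 6,000 cells per well, RPMI/10% FBS, left overnight at 37° C. with 5% CO2. Plates then stood covered for 4 h at room temperature prior to HTRF detection of pERK.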

Assay [3] concerns KRas-mediated phosphorylation of ERK in HCT116 cells. The assay is described as follows: Inhibition of KRas-mediated phosphorylation of ERK (Cisbio HTRF pERK), HCT116 cells. In kind it is cell-based. The note with it: Homo sapiens; for inhibition at 0.1 µM: HCT-116, 3 h, single point, 100 nM compound, 3 hrs; for IC50: HCT-116, HTRF pERK. A digest of the protocol:
(§3)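 Min control wells contained 0.2 uM Trametinib, while test compounds ran as 10 doses (3-fold, top 10 uM; 0.8% DMSO final) on cells for 3 hrs. After 40 mins lysis at 4° C, lysates were probed with HTRF antibodies for 2 hrs at room temperature.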

A further assay has as its target T1, KRas^G12D (Homo sapiens, UniProt P01116, G12D).
T1 construct: Biotinylated KRas (corresponding to amino acids 1-169, produced at Accelegan Inc.); biotin (biotinylated); purchased Accelegan Inc
Nature of the assay: KRas binding assay (TR-FRET tracer displacement), KRas G12D.

The test system of assay [4] is KRas-mediated phosphorylation of ERK in MKN1 cells. Nature of the assay: Inhibition of KRas-mediated phosphorylation of ERK (Cisbio HTRF pERK), MKN1 cells. It counts as cell-based. To be noted: Homo sapiens, MKN-1. A digest of the protocol:
as §2

The target in the next assay is T2, KRas^G12R (Homo sapiens, UniProt P01116, G12R).
T2 construct: Biotinylated KRas (corresponding to amino acids 1-169, produced at Accelegan Inc.); biotin (biotinylated); purchased Accelegan Inc
T2 sequence (P01116 1-169 isoform P01116-2 G12R): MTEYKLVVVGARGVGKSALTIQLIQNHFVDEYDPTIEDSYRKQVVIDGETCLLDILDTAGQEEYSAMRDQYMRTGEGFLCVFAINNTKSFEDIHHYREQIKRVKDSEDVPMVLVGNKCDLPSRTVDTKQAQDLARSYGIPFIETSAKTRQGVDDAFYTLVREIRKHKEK
The assay is described as follows: KRas binding assay (TR-FRET tracer displacement), KRas G12R.

Assay [5] concerns KRas-mediated phosphorylation of ERK in A549 cells. The assay is described as follows: Inhibition of KRas-mediated phosphorylation of ERK (Cisbio HTRF pERK), A549 cells. It counts as cell-based. The note with it: Homo sapiens; for inhibition at 0.1 µM: A549, 3 h, single point, 100 nM compound, 3 hrs; for IC50: HTRF pERK. A digest of the protocol:
as §3

The test system of assay [6] is KRas-mediated phosphorylation of ERK in H358 cells. Nature of the assay: Inhibition of KRas-mediated phosphorylation of ERK (Cisbio HTRF pERK), H358 cells. To be noted: Homo sapiens; for inhibition at 0.1 µM: NCI-H358, 3 h, single point, 100 nM compound, 3 hrs; for IC50: NCI-H358, HTRF pERK. It counts as cell-based. In outline:
as §1

Assay [7] relates to KRas-mediated phosphorylation of ERK in H727 cells. Nature of the assay: Inhibition of KRas-mediated phosphorylation of ERK (Cisbio HTRF pERK), H727 cells. In kind it is cell-based. The note with it: Homo sapiens; for inhibition at 0.1 µM: NCI-H727, 3 h, single point, 100 nM compound, 3 hrs, H727 cells; for IC50: NCI-H727, H727 cells, HTRF pERK. In outline:
as §1

For the next assay, the target named is T3, KRas^G12V (Homo sapiens, UniProt P01116, G12V).
T3 construct: Biotinylated KRas (corresponding to amino acids 1-169, produced at Accelegan Inc.); biotin (biotinylated); purchased Accelegan Inc
T3 sequence (P01116 1-169 isoform P01116-2 G12V): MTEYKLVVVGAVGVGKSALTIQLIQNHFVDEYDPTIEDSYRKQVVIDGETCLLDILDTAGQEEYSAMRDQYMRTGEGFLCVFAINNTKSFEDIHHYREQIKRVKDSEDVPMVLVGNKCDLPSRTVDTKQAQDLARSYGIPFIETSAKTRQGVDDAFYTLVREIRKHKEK
The assay is described as follows: KRas binding assay (TR-FRET tracer displacement), KRas G12V.

Assay [8] concerns KRas-mediated phosphorylation of ERK in H460 cells. The assay is described as follows: Inhibition of KRas-mediated phosphorylation of ERK (Cisbio HTRF pERK), H460 cells. It counts as cell-based. The note with it: Homo sapiens; for inhibition at 0.1 µM: NCI-H460, 3 h, single point, 100 nM compound, 3 hrs; for IC50: NCI-H460, HTRF pERK. In outline: as §1

T1 sequence (P01116 1-169 isoform P01116-2 G12D): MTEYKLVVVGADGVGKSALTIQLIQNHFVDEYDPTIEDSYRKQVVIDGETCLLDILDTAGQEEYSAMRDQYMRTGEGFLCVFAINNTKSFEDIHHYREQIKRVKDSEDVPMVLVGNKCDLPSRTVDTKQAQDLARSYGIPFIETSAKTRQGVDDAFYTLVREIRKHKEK

`CCc1c(F)ccc2cc(O)cc(-c3ncc4c(N5CCC[C@@](C)(O)C5)nc(OCC5(CN(C)C)CC56CC6)nc4c3F)c12` (stereo partly drawn) [Example 783, (3R)-1-(2-((1-((dimethylamino)methyl)spiro[2.2]pentan-1-yl)methoxy)-7-(8-ethyl-7-fluoro-3-hydroxynaphthalen-1-yl)-8-fluoropyrido[4,3-d]pyrimidin-4-yl)-3-methylpiperidin-3-ol]: the inhibition at 0.1 µM came to 47% in assay [1]; 31% in assay [3]; 34% in assay [5]; 62% in [6]; 12% in assay [7]; 47% in assay [8]. Besides, the IC50 in assay [1] was 52 nM; in [2], 9780 nM; on KRas^G12D, 2 nM; in assay [4] it was 19 nM; on KRas^G12R, 5 nM; in assay [7] it was 187 nM. Further, the half-inhibitory concentration (IC50) at KRas^G12V turned out to be 2 nM.
With `CCc1c(F)ccc2cc(O)cc(-c3ncc4c(N5CCC[C@@](C)(O)C5)nc(OC[C@@]56CCCN5[C@@H](CNS(=O)(=O)N(C)C)CC6)nc4c3F)c12` [Example 788, (R)-1-(7-(8-ethyl-7-fluoro-3-hydroxynaphthalen-1-yl)-8-fluoro-2-(((3R,7aS)-3-(((dimethylsulfamoyl)amino)methyl)tetrahydro-1H-pyrrolizin-7a(5H)-yl)methoxy)pyrido[4,3-d]pyrimidin-4-yl)-3-methylpiperidin-3-ol], the inhibition at 0.1 µM in assay [1] is 45%; in [3], 33%; in [5] it was 38%; in assay [6] it was 75%; in assay [7], 41%; in assay [8], 47%. Also, the IC50 turned out to be 73 nM in [1]; 2840 nM in [2]; 2 nM at KRas^G12D; 13 nM in assay [4]; 4 nM on KRas^G12R; 211 nM in assay [7]. This molecule also showed an IC50 at KRas^G12V of less than 2 nM.
For the molecule `CCc1c(F)ccc2cc(O)cc(-c3ncc4c(N5CCC[C@@](C)(O)C5)nc(OC[C@@]56CCCN5[C@H](CNS(=O)(=O)N(C)C)CC6)nc4c3F)c12` [Example 789, (R)-1-(7-(8-ethyl-7-fluoro-3-hydroxynaphthalen-1-yl)-8-fluoro-2-(((3S,7aS)-3-(((dimethylsulfamoyl)amino)methyl)tetrahydro-1H-pyrrolizin-7a(5H)-yl)methoxy)pyrido[4,3-d]pyrimidin-4-yl)-3-methylpiperidin-3-ol], the inhibition at 0.1 µM is 77% in assay [1]; 55% in assay [3]; 57% in assay [5]; 97% in assay [6]; 43% in assay [7]; 76% in [8]. The IC50 in [1] is 32 nM; in [2] it was 1750 nM; on KRas^G12D it was less than 2 nM; in assay [4] it was 6 nM; on KRas^G12R, less than 2 nM; in [7] it was 116 nM. In addition, the 50% inhibitory concentration (IC50) on KRas^G12V is less than 2 nM.
Regarding `CCc1c(F)ccc2cc(O)cc(-c3ncc4c(N5CCC[C@@](C)(O)C5)nc(OCC56CCCN5CC(=C(F)F)C6)nc4c3F)c12` (stereo partly drawn) [Example 792, (3R)-1-(2-((2-(difluoromethylene)tetrahydro-1H-pyrrolizin-7a(5H)-yl)methoxy)-7-(8-ethyl-7-fluoro-3-hydroxynaphthalen-1-yl)-8-fluoropyrido[4,3-d]pyrimidin-4-yl)-3-methylpiperidin-3-ol], the IC50 in assay [1] came to 4 nM; in [2], 744 nM; in [3], 13 nM; on KRas^G12D, 2 nM; in assay [4], 2 nM; on KRas^G12R it was 2 nM. The half-inhibitory concentration (IC50) in assay [5] is 9 nM; in assay [6], 8 nM; in assay [7], 32 nM; on KRas^G12V it was less than 2 nM; in assay [8] it was 4 nM.
As for `C[C@@H]1C[C@@H]1c1c(Cl)cc(O)cc1-c1ncc2c(N3CCC[C@@](C)(O)C3)nc(OC[C@@]34CCCN3C[C@H](F)C4)nc2c1F` [Example 805, (R)-1-(7-(3-chloro-5-hydroxy-2-((1S,2R)-2-methylcyclopropyl)phenyl)-8-fluoro-2-(((2R,7aS)-2-fluorotetrahydro-1H-pyrrolizin-7a(5H)-yl)methoxy)pyrido[4,3-d]pyrimidin-4-yl)-3-methylpiperidin-3-ol], the IC50 was 13 nM in [1]; 812 nM in assay [2]; 24 nM in assay [3]; less than 2 nM on KRas^G12D; 1 nM in assay [4]; 3 nM on KRas^G12R. Also, the half-maximal inhibitory concentration (IC50) in [5] is 23 nM; in [6], 8 nM; in assay [7], 29 nM; at KRas^G12V, less than 2 nM; in assay [8], 10 nM.
For `CCc1c(F)ccc2cc(O)cc(-c3ncc4c(N5CC6CCC(CO)(C6)C5)nc(OC[C@@]56CCCN5C[C@H](F)C6)nc4c3F)c12` (stereo partly drawn) [Example 812, 5-ethyl-6-fluoro-4-(8-fluoro-2-(((2R,7aS)-2-fluorotetrahydro-1H-pyrrolizin-7a(5H)-yl)methoxy)-4-(1-(hydroxymethyl)-3-azabicyclo[3.2.1]octan-3-yl)pyrido[4,3-d]pyrimidin-7-yl)naphthalen-2-ol], the concentration for half-maximal inhibition (IC50) was 743 nM in [1]; greater than 10000 nM in [2]; 324 nM in assay [3]; 12 nM on KRas^G12D; 68 nM in [4]; 6 nM at KRas^G12R. Further, the IC50 in assay [5] was found to be 922 nM; in assay [6] it was 177 nM; in assay [7], 363 nM; on KRas^G12V it was 4 nM; in assay [8], 166 nM.
As to `CCc1c(F)ccc2cc(O)cc(-c3ncc4c(N5CCC[C@@](C)(O)C5)nc(OCC5(CN(C)C)C(C)C5C)nc4c3F)c12` (stereo partly drawn) [Example 818, (3R)-1-(2-((1-((dimethylamino)methyl)-2,3-dimethylcyclopropyl)methoxy)-7-(8-ethyl-7-fluoro-3-hydroxynaphthalen-1-yl)-8-fluoropyrido[4,3-d]pyrimidin-4-yl)-3-methylpiperidin-3-ol], the 50% inhibitory concentration (IC50) was 135 nM in assay [1]; greater than 10000 nM in assay [2]; 345 nM in assay [3]; 3 nM on KRas^G12D; 61 nM in assay [4]; 8 nM on KRas^G12R. Moreover, the 50% inhibitory concentration (IC50) in assay [5] is 212 nM; in assay [6] it was 121 nM; in [7], 347 nM; on KRas^G12V, 3 nM; in assay [8], 167 nM.
Turning to `CCc1c(F)ccc2cc(O)cc(-c3ncc4c(N5CC6CCC(C(=O)N(C)C)(C6)C5)nc(OC[C@@]56CCCN5C[C@H](F)C6)nc4c3F)c12` (stereo partly drawn) [Example 824, 3-(7-(8-ethyl-7-fluoro-3-hydroxynaphthalen-1-yl)-8-fluoro-2-(((2R,7aS)-2-fluorotetrahydro-1H-pyrrolizin-7a(5H)-yl)methoxy)pyrido[4,3-d]pyrimidin-4-yl)-N,N-dimethyl-3-azabicyclo[3.2.1]octane-1-carboxamide], the 50% inhibitory concentration (IC50) in assay [1] is 165 nM; in assay [2] it was greater than 10000 nM; in [3], 502 nM; on KRas^G12D it was 11 nM; in assay [4] it was 167 nM; at KRas^G12R, 8 nM. For the same molecule, the IC50 in assay [5] was 143 nM; in assay [6], 69 nM; in [7], 174 nM; on KRas^G12V, 4 nM; in [8] it was 136 nM.

A word on the inhibition: it is the relative decrease from the control value, in per cent. Higher therefore signals strong suppression. One may read the IC50 as the concentration needed to halve the response being measured.
